Test system: CD8+pentamer+ TEM cells
Assay: Cross-presentation of apoptotic cells
Assay type: cell-based, patients with acute HCV infection
Details: DCs pulsed with apoptotic T cells previously treated with the inhibitor; five independent patients
Description: […]. Then, cells were induced to apoptosis by incubation with 500 ng/ml anti-Fas (anti-CD95 mAb [clone CH11], Upstate Biotechnology) for at least 6 h. Apoptotic cells were determined by staining with Annexin- V (ApoAlert Apoptosis Kit, Clontech Laboratories Inc), PI (Sigma-Aldrich) and flow-cytometry analysis. PBMCs were double-stained with pentamers and mAb to CD8 and cultured with iDCs that had been pulsed or not with apoptotic cloned T cells. After 6-8 h, cells were tested for their capacity to produce IL-17 and IFN-γ by intracellular cytokine staining (ICS) as described above. Cells were washed, acquired with a FACSCanto flow cytometer and analyzed with FACSDiva analysis software (Becton Dickinson) or FlowJo software (Treestar).
It is for interest the finding that fresh apoptotic epitope-specific CD8^+pentamer^+ TEM cells promptly produced IFN-γ or IL-17 ex vivo within a few hours of contact with DCs that had been pulsed with apoptotic T cells (i.e., through the cross-presentation mechanism) (Figure 25A,B). […] This phenomenon was confirmed in five independent patients (Figure 25B). The frequencies of apoptotic epitope-specific CD8^+ T cells (but not those of viral epitope-specific CD8^+ T cells [data not shown]) correlated with the number of circulating apoptotic T cells (Figure 25C). […]

## COC(=O)CC[C@H](NC(=O)[C@H](CC(=O)OC)NC(=O)OCc1ccccc1)C(=O)N[C@H](C(=O)N[C@@H](CC(=O)OC)C(=O)CF)C(C)C [C3I, Z-DEVD-FMK]
  IFN-γ or IL-17 production: marked decrease

Reference: patent EP2710378B1, “METHOD TO PROGNOSE VIRAL INFECTION BY MEASURING T CELL RESPONSE OR AUTO-ANTIBODIES TO APOPTOTIC EPITOPES” (Università degli Studi di Roma "La Sapienza", priority 2011, dated 2012)
